Reference: PMC11987006 (iScience, 2025)

How the values were obtained:
WT N2 animal [1] = experiment: salt chemotaxis with tyramine/octopamine, WT N2; type: in vivo, C. elegans; conditions: 10 μM TA or OA or both in conditioning solutions or test plate agar
WT N2 animal [2] = experiment: salt chemotaxis learning with tyramine/octopamine, WT N2; type: in vivo, C. elegans; conditions: 10 μM TA or OA or both in conditioning solutions or test plate agar

| SMILES | effect on salt chemotaxis (WT N2 animal [1]) | effect on SCL (learning index) (WT N2 animal [2]) |
| --- | --- | --- |
| NCC(O)c1ccc(O)cc1 (stereo not shown) [OA, octopamine] | no obvious impact | no obvious impact |
| NCCc1ccc(O)cc1 [TA, tyramine] | no obvious impact | no obvious impact |
